Experimental data from patent US20240067613A1, “NOVEL QUINAZOLINE DERIVATIVES AS SOS1 INHIBITORS AND USE THEREOF” (HANMI PHARMACEUTICAL CO., LTD., priority 2020, published 2024).

Target: T1, SOS1 binding to KRAS G12C (Homo sapiens, UniProt Q07889)
T1 construct: consisting of amino acid residues 564 to 1049 which are the catalytic domain; purchased Reaction Biology Corporation MSC-11-502 (SOS1-Strep); MSC-11-538 (KRAS G12C)
T1 sequence (Q07889 564-1049): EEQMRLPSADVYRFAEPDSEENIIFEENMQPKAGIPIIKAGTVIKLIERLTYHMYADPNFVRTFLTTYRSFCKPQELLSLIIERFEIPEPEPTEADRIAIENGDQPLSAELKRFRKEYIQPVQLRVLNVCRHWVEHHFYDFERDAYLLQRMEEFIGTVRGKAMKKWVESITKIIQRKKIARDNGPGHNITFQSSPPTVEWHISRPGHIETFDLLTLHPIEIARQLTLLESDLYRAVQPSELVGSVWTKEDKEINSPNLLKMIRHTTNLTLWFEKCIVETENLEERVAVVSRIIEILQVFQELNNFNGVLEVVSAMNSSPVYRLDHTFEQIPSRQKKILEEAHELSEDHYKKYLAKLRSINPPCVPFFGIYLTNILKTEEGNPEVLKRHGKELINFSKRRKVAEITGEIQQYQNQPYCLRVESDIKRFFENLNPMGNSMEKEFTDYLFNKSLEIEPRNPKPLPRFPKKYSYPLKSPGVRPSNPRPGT
Assay: SOS1 GTP substitution inhibition test (HTRF/TR-FRET, KRAS G12C-SOS1 binding inhibitory ability)
Type: biochemical
Settings: HTRF, GST-KRAS G12C (2-169), SOS1-Strep (564-1049), 1.6, 8, 40, 200, 1,000 nM
Method: In order to determine whether the substitution function of SOS1 binding to KRAS G12C is inhibited by the above-described example compounds, a homogeneous time-resolved fluorescence (HTRF) test was performed using G12C(#MSC-11-538) and SOS1-Strep(#MSC-11-502) purchased from Reaction Biology Corporation (MA, USA). The activity of SOS1 enzyme was determined by measuring the amount of GTP bound to KRAS G12C proteins, using the principle of time-resolved fluorescence energy transfer (TR-FRET). Based on the principle that terbium bound to the GST-binding antibody of the GST-KRAS G12C protein acts as a donor of fluorescence resonance energy transfer (FRET), and the GTP bound to the KRAS G12C protein is labeled with the fluorescent agent DY-647P1 and acts as a receiver, when the more GTP is bound to the KRAS G12C protein by the substitution reaction of SOS1 according to this test, the higher HTRF or FRET signal is measured. To summarize, glutathione S-transferase (GST)-tagged KRAS G12C proteins (consisting of amino acid residues 2 to 169) required for the reaction, streptavidin-tagged SOS1 proteins (consisting of amino acid residues 564 to 1049 which are the catalytic domain), anti-GST antibody (#61[…]) purchased from CISBIO corporation, nucleic acid (#NU-820-647P1) purchased from Jena Bioscience GmbH were mixed in a buffer solution formed from 10 mM HEPES pH7.4, 150 mM NaCl, 5 mM MgCl2, and 1 mM dithiothreitol (DTT), and the mixture was added to a 384-well plate and reacted at room temperature. Next, FRET signals were measured with a Perkin Elmer Envision microplate reader. In this case, an excitation signal (excitation) was measured at 320 nm, and an emission signal (emission) was measured at 615/665 nm. The fluorescence measurement value when the SOS1 protein was not included was calculated as a background signal value, and the background signal value was subtracted from all of the measured HTRF values. The fluorescence measurement value when the synthesized compound was not included was measured as a control value, and this value was selected as a reference point of 100%. For each of the example compounds, fluorescence was measured at concentrations of 1.6, 8, 40, 200, and 1,000 nM (5 points, 5-fold), and the 50% activity inhibition value (IC50) of each of the compounds was calculated using GraphPad Prism. When the IC50 value was 50 nM or less, the inhibitory ability was denoted as +++. When the IC50 value was more than 50 nM and 100 nM or less, the inhibitory ability was denoted as ++. When the IC50 value was more than 100 nM, the inhibitory ability was denoted as +.

SMILES	IC50
COc1cc2c(N[C@H](C)c3cccc(C(F)F)c3F)nc(C)nc2cc1C(=O)N1CCOCC1 [Example 6, (R)-(4-((1-(3-(difluoromethyl)-2-fluorophenyl)ethyl)amino)-6-methoxy-2-methylquinazoline-7-yl)(morpholino)methanone]	50 to 100 nM
COc1cc2c(N[C@H](C)c3cc(N)cc(C(F)(F)F)c3)nc(C)nc2cc1C(=O)N1C[C@@H](C)N[C@@H](C)C1 [Example 3, (4-(((R)-1-(3-amino-5-(trifluoromethyl)phenyl)ethyl)amino)-6-methoxy-2-methylquinazoline-7-yl)((3R, S)-3,5-dimethylpiperazin-1-yl)methanone]	> 100 nM
COc1cc2c(N[C@H](C)c3cc(N)cc(C4CC4)c3)nc(C)nc2cc1C(=O)N1CCOCC1 [Example 24, (R)-(4-((1-(3-amino-5-cyclopropylphenyl)ethyl)amino)-6-methoxy-2-methylquinazolin-7-yl)(morpholino)methanone]	50 to 100 nM
COCCOc1cc2c(N[C@H](C)c3cc(N)cc(C(F)(F)F)c3)nc(C)nc2cc1C(=O)N1CCOCC1 [Example 32, methyl (R)-(4-((1-(3-amino-5-(trifluoromethyl)phenyl)ethyl)amino)-6-(2-methoxyethoxy)-2-methylquinazolin-7-yl)(morpholino)methanone]	> 100 nM
COc1cc2c(NC(C)c3cc(-c4ccccc4CN)cs3)nc(C)nc2cc1C(=O)N1CCOCC1 (stereo not drawn) [Example 13]	50 to 100 nM
COc1cc2c(N[C@H](C)c3cc(N)cc(C(F)F)c3F)nc(C)nc2cc1OC1CCOCC1 [Example 37, (R)-N-(1-(5-amino-3-(difluoromethyl)-2-fluorophenyl)ethyl)-6-methoxy-2-methyl-7-((tetrahydro-2H-pyran-4-yl)oxy)quinazoline-4-amine]	> 100 nM
COc1cc2c(N[C@H](C)c3cc(N)cc(-c4ccoc4)c3)nc(C)nc2cc1C(=O)N1CCOCC1 [Example 28, (R)-(4-((1-(3-amino-5-(furan-3-yl)phenyl)ethyl)amino)-6-methoxy-2-methylquinazolin-7-yl)(morpholino)methanone]	≤ 50 nM
COc1cc2c(N[C@H](C)c3cc(N)cc(C(F)F)c3F)nc(C)nc2cc1CN1CCOCC1 [Example 35, (R)-N-(1-(5-amino-3-(difluoromethyl)-2-fluorophenyl)ethyl)-6-methoxy-2-methyl-7-(morpholinomethyl)quinazoline-4-amine]	≤ 50 nM
COc1cc2c(N[C@H](C)c3cc(N)cc(C(F)(F)F)c3)nc(C)nc2cc1C(=O)N1CC2COCC2C1 (stereo partly drawn) [Example 5, (4-(((R)-1-(3-amino-5-(trifluoromethyl)phenyl)ethyl)amino)-6-methoxy-2-methylquinazoline-7-yl)(tetrahydro-1H-furo[3,4-c]pyrrol-5(3H)-yl)methanone]	> 100 nM
COc1cc2c(N[C@H](C)c3cc(N)cc(C(F)(F)F)c3)nc(C)nc2cc1OCC1CCOCC1 [Example 38, (R)-N-(1-(3-amino-5-(trifluoromethyl)phenyl)ethyl)-6-methoxy-2-methyl-7-((tetrahydro-2H-pyran-4-yl)methoxy)quinazoline-4-amine]	> 100 nM
COc1cc2c(N[C@H](C)c3cc(N)cc(C(F)(F)F)c3)nc(C)nc2cc1OC1CCOCC1 [Example 36]	50 to 100 nM
COc1cc2c(NC(C)c3cc(-c4ccccc4CN(C)C)cs3)nc(C)nc2cc1C(=O)N1CCOCC1 (stereo not drawn) [Example 12]	50 to 100 nM
COc1cc2c(N[C@H](C)c3cc(N)cc(C(F)(F)F)c3)nc(C)nc2cc1C(=O)N1CCSC1 [Example 20, (R)-(4-((1-(3-amino-5-(trifluoromethyl)phenyl)ethyl)amino)-6-methoxy-2-methylquinazolin-7-yl)(thiazolidine-3-yl)methanone]	≤ 50 nM
COc1cc2c(N[C@H](C)c3cccc(C(F)(F)F)c3)nc(C)nc2cc1C(=O)N1CCOCC1 [Example 15, (R)-(6-methoxy-2-methyl-4-((1-(3-(trifluoromethyl)phenyl)ethyl)amino)quinazolin-7-yl)(morpholino)methanone]	> 100 nM
COc1cc2c(N[C@H](C)c3cc(N)cc(C(F)(F)F)c3)nc(C)nc2cc1C(=O)N1CC(F)C1 [Example 11, (R)-(4-((1-(3-amino-5-(trifluoromethyl)phenyl)ethyl)amino)-6-methoxy-2-methylquinazoline-7-yl)(3-fluorazetidine-1-yl)methanone]	> 100 nM
COc1cc2c(N[C@H](C)c3cc(N)cc(C(F)F)c3)nc(C)nc2cc1C(=O)N1CCOCC1 [Example 29, (R)-(4-((1-(3-amino-5-(difluoromethyl)phenyl)ethyl)amino)-6-methoxy-2-methylquinazolin-7-yl)(morpholino)methanone]	≤ 50 nM

Other lines, results leading:

IC50	SMILES
≤ 50 nM	CNc1cc2c(N[C@H](C)c3cc(N)cc(C(F)F)c3F)nc(C)nc2cc1C(=O)N1CCOCC1 [Example 43, (R)-(4-((1-(5-amino-3-(difluoromethyl)-2-fluorophenyl)ethyl)amino)-2-methyl-6-(methylamino)quinazoline-7-yl)(morpholino)methanone]
50 to 100 nM	CNc1cc2c(N[C@H](C)c3cc(N)cc(C(F)(F)F)c3)nc(C)nc2cc1C(=O)N1CCC1 [Example 62, (R)-(4-((1-(3-amino-5-(trifluoromethyl)phenyl)ethyl)amino)-2-methyl-6-(methylamino)quinazoline-7-yl)(azetidine-1-yl)methanone]
≤ 50 nM	CNc1cc2c(N[C@H](C)c3cc(N)cc(C(F)(F)F)c3)nc(C)nc2cc1C(=O)N1CCS(=O)(=O)CC1 [Example 59, (R)-(4-((1-(3-amino-5-(trifluoromethyl)phenyl)ethyl)amino)-2-methyl-6-(methylamino)quinazolin-7-yl)(1,1-dioxothiomorpholino)methanone]
≤ 50 nM	COCCNc1cc2c(N[C@H](C)c3cc(N)cc(C(F)(F)F)c3)nc(C)nc2cc1C(=O)N1CCS(=O)(=O)CC1 [Example 68, (R)-(4-((1-(3-amino-5-(trifluoromethyl)phenyl)ethyl)amino)-6-((2-methoxyethyl)amino)-2-methylquinazoline-7-yl)(1,1-dioxothiomorpholino)methanone]
> 100 nM	COc1cc2c(N[C@H](C)c3cc(N)cc(C(F)(F)F)c3)nc(C)nc2cc1NC1CCOCC1 [Example 69, (R)-NM-(1-(3-amino-5-(trifluoromethyl)phenyl)ethyl)-6-methoxy-2-methyl-N^7-(tetrahydro-2H-pyran-4-yl)quinazoline-4,7-diamine]
> 100 nM	Cc1nc(N[C@H](C)c2cc(N)cc(C(F)(F)F)c2)c2cc(NC3CCOCC3)c(C(=O)N3CCOCC3)cc2n1 [Example 48, (R)-(4-((1-(3-amino-5-(trifluoromethyl)phenyl)ethyl)amino)-2-methyl-6-((tetrahydro-2H-pyran-4-yl)amino)quinazoline-7-yl)(morpholino)methanone]
≤ 50 nM	CNc1cc2c(N[C@H](C)c3cc(N)cc(C(F)(F)F)c3)nc(C)nc2cc1C(=O)N1CCOCC1 [Example 40, (R)-(4-((1-(3-amino-5-(trifluoromethyl)phenyl)ethyl)amino)-2-methyl-6-(methylamino)quinazoline-7-yl)(morpholino)methanone]
≤ 50 nM	COCCNc1cc2c(N[C@H](C)c3cc(N)cc(C(F)F)c3F)nc(C)nc2cc1C(=O)N1CCOCC1 [Example 56, (R)-(4-((1-(5-amino-3-(difluoromethyl)-2-fluorophenyl)ethyl)amino)-6-((2-methoxyethyl)amino)-2-methylquinazolin-7-yl)(morpholino)methanone]
